# According to PubChem BioAssay (NCI):
#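 Method: 48-hour compound exposure of cells in 96-well plates, five concentrations, linear interpolation of endpoints. At the GI50, growth is halved. TGI is the concentration that stops growth completely.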
# How the values were obtained:
# Assay in all cases: DTP human tumour cell line panel, 48 h
# SK-MEL-5 melanoma = tested on: SK-MEL-5 melanoma
# EKVX NSCLC = tested on: EKVX NSCLC
# RXF 393 renal = tested on: RXF 393 renal
# HCT-15 colon = tested on: HCT-15 colon
# HOP-62 NSCLC = tested on: HOP-62 NSCLC
# SK-MEL-28 melanoma = tested on: SK-MEL-28 melanoma
# MDA-N = tested on: MDA-N
# NCI-H23 lung = tested on: NCI-H23 lung
# UO-31 renal = tested on: UO-31 renal
# SF-539 CNS = tested on: SF-539 CNS
SMILES,TGI (SK-MEL-5 melanoma),TGI (EKVX NSCLC),TGI (RXF 393 renal),TGI (HCT-15 colon),TGI (HOP-62 NSCLC),TGI (SK-MEL-28 melanoma),TGI (MDA-N),TGI (NCI-H23 lung),TGI (UO-31 renal),TGI (SF-539 CNS),GI50 (SK-MEL-5 melanoma),GI50 (EKVX NSCLC),GI50 (RXF 393 renal),GI50 (HCT-15 colon),GI50 (HOP-62 NSCLC),GI50 (SF-539 CNS),GI50 (SK-MEL-28 melanoma),GI50 (NCI-H23 lung),GI50 (UO-31 renal)
CC(=O)O[C@H]1C[C@H]2C(=S)Nc3ccccc3C(=S)N2C1,> 100 µM,> 100 µM,> 100 µM,> 100 µM,> 100 µM,> 100 µM,> 100 µM,> 100 µM,> 100 µM,–,–,–,–,–,–,–,–,–,–
COc1cc(C2c3cc4c(cc3[C@@H](Nc3cccc([N+](=O)[O-])c3)C3COC(=O)[C@H]23)OCO4)cc(OC)c1O (stereo not given in full),7.87 µM,> 38.2 µM,7.41 µM,4.12 µM,3.31 µM,> 100 µM,–,4.65 µM,> 29 µM,4.02 µM,–,–,–,–,–,–,–,–,–
C#CC(O)/C=C/C(O)CCCC(O)CC#CC(O)C#CC(O)CCCC(O)/C=C/CCCC(=O)CCCCCCCCCCCCCCCC(O)C(O)C#CC(=O)O (stereo not given),> 50 µM,> 50 µM,> 50 µM,> 50 µM,> 50 µM,> 50 µM,> 50 µM,> 50 µM,22.1 µM,–,–,–,–,–,–,–,–,–,–
O=[N+]([O-])c1ccc2c(c1)c(S(=O)(=O)O)cc1nonc12,> 100 µM,> 100 µM,–,> 100 µM,> 100 µM,> 100 µM,> 100 µM,> 100 µM,> 100 µM,> 100 µM,–,–,–,–,–,–,–,–,–
CC(=O)OCC1OC(O/C=C(\CN=[N+]=[N-])C(C)=O)C(OC(C)=O)C(OC(C)=O)C1OC(C)=O (stereo not given),26.2 µM,34.7 µM,–,18.9 µM,70.7 µM,89.7 µM,30 µM,25.6 µM,21.4 µM,–,–,–,–,–,–,–,–,–,–
CC(=O)NC(Cc1ccc(OP(=O)(OCc2ccc([N+](=O)[O-])o2)N(C)CCCCCl)cc1)C(=O)NC(C)c1ccc(OCC2CCCCC2)c(C(N)=O)c1 (stereo not given),3.08 µM,–,5.68 µM,> 100 µM,23.7 µM,4.08 µM,5.22 µM,6.3 µM,45.2 µM,4.35 µM,–,–,–,–,–,–,–,–,–
CCN(CC)CCCC(C)NC(=O)c1ccc2c(c1)C(=O)c1ccccc1C2=O (stereo not given),28.4 µM,55.8 µM,42.8 µM,40 µM,69.9 µM,29.8 µM,–,24.2 µM,69 µM,36 µM,–,–,–,–,–,–,–,–,–
Oc1ccc(C#CCOc2ccccc2)cc1CNCCN(Cc1ccccn1)Cc1ccccn1,2.84 µM,3.33 µM,2.96 µM,3.55 µM,2.96 µM,5.91 µM,–,5.51 µM,2.5 µM,3.09 µM,1.49 µM,1.24 µM,1.49 µM,1.13 µM,0.762 µM,1.6 µM,2.04 µM,1.83 µM,1.02 µM
Nn1c(Cc2ccccc2)n[nH]c1=O,> 100 µM,> 100 µM,–,> 100 µM,> 100 µM,> 100 µM,> 100 µM,> 100 µM,> 100 µM,> 100 µM,–,–,–,–,–,–,–,–,–
Oc1cccc(-c2cn3cc(C(F)(F)F)ccc3n2)c1,56.5 µM,70.9 µM,50.2 µM,> 100 µM,> 100 µM,> 100 µM,> 100 µM,> 100 µM,> 100 µM,–,–,–,–,–,–,–,–,–,–
CCN1CCC(O)(c2ccc(Oc3ccc(C)cc3)cc2)C(C(=O)c2ccc(Oc3ccc(C)cc3)cc2)C1 (stereo not given),20.4 µM,29 µM,16.2 µM,15.2 µM,35.5 µM,23.3 µM,22.6 µM,30.2 µM,20.6 µM,–,–,–,–,–,–,–,–,–,–
O=C1c2ccccc2-c2nc(/C=C/c3ccccc3)cc3c2c1nc1ccccc13,8.8 µM,> 100 µM,> 100 µM,40.8 µM,76.3 µM,44.6 µM,–,28.9 µM,> 100 µM,> 100 µM,–,–,–,–,–,–,–,–,–
CC(=O)OCC1=C(C)C[C@H]([C@@H](COC(C)=O)C2CCC3C4C[C@H]5O[C@]56CC=CC(=O)[C@]6(C)C4CC[C@@]32C)OC1=O (stereo not given in full),0.875 µM,1.36 µM,1.12 µM,0.296 µM,1.91 µM,1.19 µM,0.675 µM,3.59 µM,2.96 µM,–,–,–,–,–,–,–,–,–,–
c1ccc2nc(CCC3CCCCN3)ccc2c1 (stereo not given),> 100 µM,> 100 µM,> 100 µM,> 100 µM,> 100 µM,> 100 µM,> 100 µM,> 100 µM,> 100 µM,–,–,–,–,–,–,–,–,–,–
CC(NC(C#N)CC12CC3CC(CC(C3)C1)C2)c1ccccc1 (stereo not given),> 100 µM,> 100 µM,–,> 100 µM,> 100 µM,> 100 µM,> 100 µM,–,> 100 µM,–,–,–,–,–,–,–,–,–,–
CS(=O)(=O)OCCCOS(C)(=O)=O,> 100 µM,> 100 µM,> 100 µM,> 100 µM,> 100 µM,> 100 µM,–,> 100 µM,> 100 µM,> 100 µM,–,–,–,–,–,–,–,–,–
NC(=O)c1nnsc1NC=O,> 100 µM,> 100 µM,> 100 µM,> 100 µM,> 100 µM,> 100 µM,> 100 µM,> 100 µM,> 100 µM,–,–,–,–,–,–,–,–,–,–
CC1(CC2=C(C(=O)NCCO[Si](C)(C)C(C)(C)C)C3(OCCO3)C2=O)OCCO1,> 100 µM,> 100 µM,–,> 100 µM,> 100 µM,> 100 µM,> 100 µM,> 100 µM,> 100 µM,> 100 µM,–,–,–,–,–,–,–,–,–
NS(=O)(=O)c1nnc(NS(=O)(=O)c2ccccc2C(=O)O)s1,> 100 µM,> 100 µM,> 100 µM,> 100 µM,> 100 µM,> 100 µM,> 100 µM,> 100 µM,> 100 µM,–,–,–,–,–,–,–,–,–,–
O=C1ON=C2C3CC4CC12CC1(C3)C(=O)ON=C41,> 100 µM,> 100 µM,> 100 µM,–,> 100 µM,> 100 µM,> 100 µM,> 100 µM,> 100 µM,> 100 µM,–,–,–,–,–,–,–,–,–
O=C1c2ccccc2C(=O)c2c(O)ccc(O)c21,> 100 µM,> 100 µM,> 100 µM,> 100 µM,> 100 µM,> 100 µM,–,> 100 µM,> 100 µM,> 100 µM,–,–,–,–,–,–,–,–,–
